Values quoted from earlier work as cited in patent US20260199330A1, “MEDICAL METHOD AND USE” (ViiV Healthcare UK (No.3) Limited, priority 2024, published 2026).

Legend:
[1] = supratherapeutic oral CAB 150 mg q12 h×3 doses, TQT study
[2] = oral 60 mg once daily for 2 years, LAI116482 (LATTE)

Structure (SMILES): C[C@H]1CO[C@@H]2Cn3cc(C(=O)NCc4ccc(F)cc4F)c(=O)c(O)c3C(=O)N12 [Cabotegravir, (3S, 11aR)-N-((2,4-difluorophenyl)methyl)-6-hydroxy-3-methyl-5,7-dioxo-2,3,5, 11,11a-hexahydro(1,3)oxazolo(3,2-a)pyrido(1,2-d)pyrazine-8-carboxamide]
- geometric mean Cmax, short-term safety threshold [1]: 22.5 µg/mL
- median (steady state) Cmax, long-term safety threshold [2]: 13.1 µg/mL
